Experimental data published in paper PMC9865397, “Colon-Targeted Trans-Cinnamic Acid Ameliorates Rat Colitis by Activating GPR109A” (Pharmaceutics, 2022).

What was measured:
DNBS-induced rat colitis = test: DNBS-induced rat colitis, anti-colitic effects; type: in vivo; conditions: for CINC-3 level in inflamed distal colon / MPO activity in inflamed distal colon / iNOS and COX-2 protein levels in inflamed distal colon / colonic damage (CDS): oral once per day for 6 days, tCA 30 mg/kg; for CINC-3 level in inflamed distal colon / MPO activity in inflamed distal colon / iNOS and COX-2 protein levels in inflamed distal colon: tCA-GA L and H; for colonic damage (CDS): tCA-GA equivalent to 15 (L) and 30 (H) mg/kg tCA, SSZ 30 mg/kg
Experimental: For an animal experiment to evaluate the anti-colitic effects of drugs, six groups (n = 5 rats per group) were made and treated via oral gavage as follows: normal group, 1.0 mL of phosphate buffered saline (pH 7.4, PBS); colitis group, 1.0 mL of PBS; tCA-treated colitis group, tCA (30 mg/kg) in 1.0 mL of PBS; tCA-GA-treated colitis group (L), tCA-GA (28 mg/kg, equivalent to 15 mg/kg of tCA) in 1.0 mL of PBS; tCA-GA-treated colitis group (H), tCA-GA (56 mg/kg, equivalent to 30 mg/kg of tCA) in 1.0 mL of PBS; SSZ-treated colitis group, SSZ (30 mg/kg) in 1.0 mL of PBS. For the other experiment to evaluate GPR109A-dependent anti-colitic effects of tCA-GA, five groups (n = 5 rats per group) were made and treated via oral gavage as follows: normal group, 1.0 mL of PBS; colitis group, 1.0 mL of PBS; tCA-GA-treated colitis group, tCA-GA (28 mg/kg) in 1.0 mL of PBS; tCA-GA + MPZ-treated colitis group, tCA-GA (28 mg/kg) and MPZ (2 mg/kg) in 1.0 mL of PBS; MPZ-treated colitis group, MPZ (2 mg/kg) in 1.0 mL of PBS.
DNBS-mediated colitis was induced in rats as described previously. Additionally, 3 days after the induction of colitis, the drugs were administered once per day for 6 days as in Section 2.10. The rats were killed to obtain the inflamed distal colon. The colonic damage score (CDS), assessing pathological state in colon tissue and neighbor organs ascribed to DNBS-induced inflammation, was calculated according to the criteria set previously. For histological evaluation, fixed colon tissues were embedded in paraffin, sections with a thickness of 4 μm were cut and stained with hematoxylin and eosin (H&E). The sections were examined under a light microscope (Olympus BX43, Olympus Co., Tokyo, Japan). Myeloperoxidase (MPO) activity was measured as described previously.
(§1) Changes in levels of the proteins were monitored using Western blotting. Cell lysates and tissue lysates of the distal colon were prepared for Western blot analysis as described previously. To determine the protein concentrations in the lysates, bicinchoninic acid reagent (Thermo Fisher Scientific, Waltham, MA, USA) was used according to the manufacturer’s instructions. SDS-PAGE (10 or 7.5% gels) was used to separate and analyze the proteins in the sample lysates. Anti-cyclooxygenase (COX-2, sc-365374, Santa Cruz Biotechnology, Dallas, TX, USA) and anti-inducible nitric oxide synthase (iNOS) antibodies (sc-7271, Santa Cruz Biotechnology) were used to detect COX-2 and iNOS proteins, respectively. Horseradish peroxidase-conjugated secondary antibodies (Santa Cruz Biotechnology) were used to label the primary antibodies. The protein bands in membranes were visualized using the SuperSignal chemiluminescence substrate (Thermo Fisher Scientific, Waltham, MA, USA). As a loading control, α-tubulin was detected using an anti-α-tubulin antibody (Santa Cruz Biotechnology). Intensity of Western blots was quantified using Image Lab software (version 5.2 build 14, Bio-Rad, Hercules, CA, USA). The mean values (n = 3 for cell experiments, n = 5 for animal experiments) were shown under the blots in figures. Original images of Western blots are shown in Supplementary Data S1.
The distal colon samples (0.1 g) obtained from rats were minced in a potassium phosphate buffer (pH 6.0, 1.0 mL), homogenized using a T10 basic/IKA homogenizer (ULTRA-TURRAX®, Staufen im Breisgau, Germany), and centrifuged at 10,000× g for 10 min at 4 °C. The levels of CINC-3 and IL-10 were determined in the samples using ELISA kits, according to the manufacturer’s instructions.

RAW 264.7 cells = test: LPS-stimulated RAW 264.7 cells: IL-10, COX-2 and iNOS levels; type: cell-based, murine
Experimental: as §1

[1] = Cleavage test with autoclaved cecal contents; type: in vitro ADME, rat; conditions: up to 24 h
[2] = Chemical stability in pH 1.2 and pH 6.8 buffers; type: physicochemical; conditions: incubation for up to 10 h
Experimental: Distribution coefficients (log D6.8) of tCA, tCA-AA, and tCA-GA were measured as described previously. The concentrations of drugs were determined using a UV-Vis spectrophotometer (Shimadzu, Tokyo, Japan) at 277 nm, and log D6.8 was calculated using the equation reported previously. The chemical stabilities of tCA-GA and tCA-AA were analyzed in HCl-NaCl buffer (pH 1.2) and pH 6.8 isotonic phosphate buffer, representing the physiological pH of the stomach and small intestine, respectively. […]

[3] = Stability in small intestinal contents; type: in vitro ADME; conditions: rat small intestinal contents, up to 10 h
Experimental: (§2) Male Sprague–Dawley (SpD) rats (250–260 g) were killed using CO2 gas. The proximal small intestinal, distal small intestinal, and cecal contents were collected separately and suspended in pH 6.8 isotonic phosphate buffer to prepare a 20% w/v suspension. tCA-GA and tCA-AA (10 mM) dissolved in pH 6.8 isotonic phosphate buffer (4 mL) were added to the suspension (4 mL) and incubated at 37 °C. To maintain anaerobic conditions, the collection of cecal contents and incubation of the conjugates in the cecal contents were conducted in a nitrogen gas bag (Sigma-Aldrich, Burlington, MA, USA). At appropriate time intervals, a portion of the mixture (0.5 mL), pipetted using a wide-orifice tip, was centrifuged in a microtube. After acidification (with 1.0 M HCl) of the supernatant (0.3 mL), EA was added and vigorously mixed. The organic layer (0.2 mL) was retrieved and evaporated. The residue, dissolved in the mobile phase (0.2 mL), was filtered and subjected to HPLC analysis. Centrifugation was conducted at 10,000× g for 10 min at 4 °C.

Caco-2 cell monolayer = Caco-2 cell monolayer permeability assay; type: in vitro ADME, Human; conditions: 1.2 mM on apical side, up to 24 h, compared with tCA
Experimental: Caco-2 cells were seeded at 1 × 10^5 cells per insert in Transwell inserts with a pore size of 0.4 μm (SPL Inc., Houston, TX, USA). DMEM, containing 10% FBS and 1% penicillin/streptomycin, was added to the basolateral (well) (1 mL) and apical (insert) compartments (0.2 mL). The cells were grown until the trans-epithelial electrical resistance value (EMD Millipore, Billerica, MA, USA) of the cell monolayer reached 2000 Ω cm^2. After removing the culture medium, tCA and its derivatives (1.2 mM) dissolved in DMEM (0.2 mL) without phenol red and were placed on the apical side of the cell monolayer. At appropriate time intervals, the concentrations of the drugs on the basolateral side filled with DMEM (1.0 mL) were determined using HPLC.

[4] = Distribution coefficient (log D6.8), n-octanol/buffer pH 6.8; type: physicochemical; conditions: n-octanol/buffer (pH 6.8) system; read-out: distribution coefficient (DC, log D6.8)
Experimental: Distribution coefficients (log D6.8) of tCA, tCA-AA, and tCA-GA were measured as described previously. The concentrations of drugs were determined using a UV-Vis spectrophotometer (Shimadzu, Tokyo, Japan) at 277 nm, and log D6.8 was calculated using the equation reported previously. The chemical stabilities of tCA-GA and tCA-AA were analyzed in HCl-NaCl buffer (pH 1.2) and pH 6.8 isotonic phosphate buffer, representing the physiological pH of the stomach and small intestine, respectively. Each drug (0.1 mM) dissolved in the buffers was incubated for at least 12 h, and change in the concentrations of the drugs was monitored using HPLC analysis.

[5] = Conversion of conjugates to tCA in cecal contents under nitrogen; type: in vitro ADME; conditions: rat cecal contents under nitrogen
Experimental: as §2

[6] = RAW 264.7, LPS, MPZ 100 µM with tCA
[7] = tCA-GA 28 mg/kg oral once per day for 6 days (MPZ experiment)

| stability in autoclaved cecal contents [1] | change in concentration in buffers (pH 1.2, 6.8) [2] | change in concentration in small intestinal contents [3] | logD [4] | SMILES | permeation through the Caco-2 cell monolayer (Caco-2 cell monolayer) | CINC-3 level in inflamed distal colon (DNBS-induced rat colitis) | MPO activity in inflamed distal colon (DNBS-induced rat colitis) | iNOS and COX-2 protein levels in inflamed distal colon (DNBS-induced rat colitis) | colonic damage (CDS) (DNBS-induced rat colitis) | further results |
| --- | --- | --- | --- | --- | --- | --- | --- | --- | --- | --- |
| – | – | – | – | C[N+]1(C)CCCC(OC(=O)C(O)(c2ccccc2)c2ccccc2)C1 (centres unmarked) [MPZ, mepenzolate, reference compound] | – | – | – | – | – | inflammatory state after single treatment (DNBS-induced rat colitis; MPZ 2 mg/kg alone, oral, 6 days): inflammatory state similar to that induced by the DNBS control; effect of co-administered MPZ on colonic damage and inflammation (DNBS-induced rat colitis; MPZ 2 mg/kg co-administered with tCA-GA 28 mg/kg, oral, 6 days): significantly compromised the beneficial effects of tCA-GA; effect of co-administered MPZ on IL-10 level in inflamed colon (DNBS-induced rat colitis; MPZ 2 mg/kg combined with tCA-GA 28 mg/kg, oral, 6 days): significantly suppressed the increase in the levels of IL-10; effect of MPZ on tCA suppression of COX-2 and iNOS (RAW 264.7 cells; [6]): undermined the suppressive effects of tCA; effect of MPZ on tCA-increased IL-10 level (RAW 264.7 cells; [6]): significantly suppressed by MPZ |
| remained intact for up to 24 h | no notable changes in the concentrations | no notable changes in the concentrations | -0.61 | O=C(O)C[C@H](NC(=O)/C=C/c1ccccc1)C(=O)O [tCA-AA, N-Cinnamoyl-L-Aspartic Acid] | substantially delayed the permeation of tCA through the cell monolayer | – | – | – | – | – |
| remained intact for up to 24 h | no notable changes in the concentrations | no notable changes in the concentrations | -0.98 | O=C(O)CC[C@H](NC(=O)/C=C/c1ccccc1)C(=O)O [tCA-GA, N-Cinnamoyl-L-Glutamic Acid] | substantially delayed the permeation of tCA through the cell monolayer | lowered | lowered MPO activity | lowered | significantly more effective than tCA at mitigating pathological changes | H&E staining, mucosal layer of distal colon (DNBS-induced rat colitis; both doses of tCA-GA, greater than tCA and SSZ): recovered the mucosal layer of the distal colon; IL-10 level in inflamed colon (DNBS-induced rat colitis; first experiment (Supplementary Data S6), more effective than oral tCA): increased the levels of IL-10 in the inflamed colon; IL-10 level in inflamed colon (DNBS-induced rat colitis; [7]): increased the levels of IL-10 in the inflamed colon; colonic damage incl. colon length shortening (DNBS-induced rat colitis; [7]): substantially alleviates colonic damage; colonic inflammation (MPO activity, CINC-3, iNOS, COX-2 in distal colon) (DNBS-induced rat colitis; [7]): markedly suppressed; conversion rate to tCA [5]: higher than that of tCA-AA to tCA |
| – | – | – | – | O=C(O)/C=C/c1ccccc1 [tCA, trans-cinnamic acid] | – | lowered | lowered MPO activity | lowered | ameliorated colonic damage | LPS-induced COX-2 and iNOS protein levels (RAW 264.7 cells; RAW 264.7, LPS 24 h, tCA pretreatment 1 h): reduced the levels of COX-2 and iNOS; IL-10 level in cell culture supernatant (RAW 264.7 cells; RAW 264.7, LPS, tCA 2 mM / 5 mM): increased the level of IL-10 |
| – | – | – | – | O=C(O)c1cc(/N=N/c2ccc(S(=O)(=O)Nc3ccccn3)cc2)ccc1O [SSZ, sulfasalazine, reference compound] | – | – | – | – | tCA was as effective as SSZ | – |
